Experiments:
Assay type in all cases: in vivo
[1] = test system: Abutilon theophrasti (ABUTH); test: Adjuvant efficacy with nicosulfuron, glasshouse spray test; conditions: nicosulfuron WG, mean over 15 and 60 g/ha and 3 replicates; adjuvant 0.2% v/v (none in No Adjuvant rows); % leaf area killed, 21 days after application; Tests 1-4 separate runs
Protocol: (§1) The efficacy of adjuvants 1-12 as adjuvants for the herbicide nicosulfuron were tested in a glasshouse against four weed species sown into standard soil in pots and cultivated under controlled conditions in a glasshouse (at 24/18° C. day/night; 16 hours light; 65% humidity). Nicosulfuron was added to the spray tank as a standard WG (water dispersible granule) formulation.
(§2) The spray tests were also carried out using nicosulfuron in conjunction with adjuvants 1-12. The adjuvant was added to the spray solution at a rate of 0.2% v/v. All spray solutions also contained 12.5% v/v of iso-Propanol. The weed species and their BBCH growth stage at spraying were Abutilon theophrasti (ABUTH; growth stage 13), Chenopodium album (CHEAL; growth stage 13-14), Digitaria sanguinalis (DIGSA; growth stage 11), and Setaria viridis (SETVI; growth stage 13). Each spray test was replicated three times. The test plants were then grown in a glasshouse under controlled conditions (at 24/18° C. day/night; 16 hours light; 65% humidity) and watered twice a day. The efficacy of the herbicide was assessed visually and expressed as a percentage of the leaf area killed. Samples were assessed at a time period of 21 days following application. The results shown in Table 1 below are mean averages over the two rates of nicosulfuron, and the three replicates.

[2] = test system: Chenopodium album (CHEAL); test: as above; conditions: nicosulfuron WG, mean over 15 and 60 g/ha and 3 replicates; adjuvant 0.2% v/v (none in No Adjuvant rows); % leaf area killed, 21 days after application; Tests 1-4 separate runs
Protocol: as §1, §2

[3] = test system: Digitaria sanguinalis (DIGSA); test: as above; conditions: nicosulfuron WG, mean over 15 and 60 g/ha and 3 replicates; adjuvant 0.2% v/v (none in No Adjuvant rows); % leaf area killed, 21 days after application; Tests 1-4 separate runs
Protocol: as §1, §2

Setaria viridis (SETVI) [4] = test: as above; conditions: nicosulfuron WG, mean over 15 and 60 g/ha and 3 replicates; adjuvant 0.2% v/v (none in No Adjuvant rows); % leaf area killed, 21 days after application; Tests 1-4 separate runs
Protocol: as §1, §2

[5] = test system: four weed species (ABUTH, CHEAL, DIGSA, SETVI); test: Adjuvant efficacy with nicosulfuron, glasshouse spray test, average over all species; conditions: nicosulfuron WG, mean over 15 and 60 g/ha, adjuvant 0.2% v/v (none in No Adjuvant rows), 21 days, average of ABUTH
Protocol: as §1, §2

[6] = test system: Abutilon theophrasti (ABUTH); test: Adjuvant efficacy with fomesafen, glasshouse spray test; conditions: fomesafen sodium salt SL, mean over 100 and 200 g/ha and 3 replicates; adjuvant 0.2% v/v (none in No Adjuvant rows); % leaf area killed, 21 days after application; Tests 1-4 separate runs
Protocol: as §1, with “fomesafen (as the sodium salt)” for “nicosulfuron”, “species,” for “species”, “light,” for “light;”, “Fomesafen sodium salt” for “Nicosulfuron”, “SL (soluble concentrate)” for “WG (water dispersible granule)”
(§3) The spray tests were also carried out using fomesafen in conjunction with adjuvants 1-12. Unless otherwise stated, the adjuvants were added to the spray solution at a rate of 0.2% v/v. All spray solutions also contained 12.5% v/v of iso-Propanol to normalise the retention of the sprays on the hydrophobic plant surfaces. The weed species and their BBCH growth stage at spraying were Abutilon theophrasti (ABUTH; growth stage 12-13), Chenopodium album (CHEAL; growth stage 15), Ipomea hederacea (IPOHE; growth stage 12), and Setaria viridis (SETVI; growth stage 14). Each spray test was replicated three times. The test plants were then grown in a glasshouse under controlled conditions (at 24/18° C. day/night; 16 hours light; 65% humidity) and watered twice a day.
(§4) The efficacy of the herbicide was assessed visually and expressed as a percentage of the leaf area killed. Samples were assessed at a time period of 21 days following application. The results shown in Table 2 below are mean averages over the two rates of fomesafen, the three replicates […].

[7] = test system: Chenopodium album (CHEAL); test: as above; conditions: fomesafen sodium salt SL, mean over 100 and 200 g/ha and 3 replicates; adjuvant 0.2% v/v (none in No Adjuvant rows); % leaf area killed, 21 days after application; Tests 1-4 separate runs
Protocol: as §1, with “fomesafen (as the sodium salt)” for “nicosulfuron”, “species,” for “species”, “light,” for “light;”, “Fomesafen sodium salt” for “Nicosulfuron”, “SL (soluble concentrate)” for “WG (water dispersible granule)”
as §3, §4

Ipomea hederacea (IPOHE) = test: as above; conditions: fomesafen sodium salt SL, mean over 100 and 200 g/ha and 3 replicates; adjuvant 0.2% v/v (none in No Adjuvant rows); % leaf area killed, 21 days after application; Tests 1-4 separate runs
Protocol: as §1, with “fomesafen (as the sodium salt)” for “nicosulfuron”, “species,” for “species”, “light,” for “light;”, “Fomesafen sodium salt” for “Nicosulfuron”, “SL (soluble concentrate)” for “WG (water dispersible granule)”
as §3, §4

Setaria viridis (SETVI) [8] = test: as above; conditions: fomesafen sodium salt SL, mean over 100 and 200 g/ha and 3 replicates; adjuvant 0.2% v/v (none in No Adjuvant rows); % leaf area killed, 21 days after application; Tests 1-4 separate runs
Protocol: as §1, with “fomesafen (as the sodium salt)” for “nicosulfuron”, “species,” for “species”, “light,” for “light;”, “Fomesafen sodium salt” for “Nicosulfuron”, “SL (soluble concentrate)” for “WG (water dispersible granule)”
as §3, §4

[9] = test system: four weed species (ABUTH, CHEAL, IPOHE, SETVI); test: Adjuvant efficacy with fomesafen, glasshouse spray test, average over all species; conditions: fomesafen sodium salt SL, mean over 100 and 200 g/ha, adjuvant 0.2% v/v (none in No Adjuvant rows), 21 days, average of ABUTH
Protocol: as §1, with “fomesafen (as the sodium salt)” for “nicosulfuron”, “species,” for “species”, “light,” for “light;”, “Fomesafen sodium salt” for “Nicosulfuron”, “SL (soluble concentrate)” for “WG (water dispersible granule)”
as §3, §4

[10] = test system: Alopecurus myosuroides (ALOMY); test: Adjuvant efficacy with pinoxaden, glasshouse spray test; conditions: pinoxaden EC, mean over 7.5 and 15 g/ha and 3 replicates; adjuvant 0.2% v/v (none in No Adjuvant rows); % leaf area killed, 21 days after application; Tests 1-4 separate runs
Protocol: as §1, with “pinoxaden” for “nicosulfuron”, “species,” for “species”, “20/16°” for “24/18°”, “Pinoxaden” for “Nicosulfuron”, “EC (emulsifiable concentrate)” for “WG (water dispersible granule)”
(§5) The spray tests were also carried out using pinoxaden in conjunction with adjuvants 1-12. The adjuvants were added to the spray solution at a rate of 0.2% v/v unless otherwise stated. All spray solutions also contained 10% w/w of iso-Propanol. The weed species and their BBCH growth stage at spraying were Avena fatua (AVEFA; growth stage 12), Lolium perenne (LOLPE; growth stage 13), Alopecurus myosuroides (ALOMY; growth stage 13), and Setaria viridis (SETVI; growth stage 13-14). Each spray test was replicated three times. The test plants were then grown in a glasshouse under controlled conditions (at 20/16° C. day/night; 16 hours light; 65% humidity) and watered twice a day. The efficacy of the herbicide was assessed visually and expressed as a percentage of the leaf area killed. Samples were assessed at a time period of 21 days following application. The results shown in Table 4 below are mean averages over the two rates of pinoxaden, and the three replicates.

Avena fatua (AVEFA) = test: as above; conditions: pinoxaden EC, mean over 7.5 and 15 g/ha and 3 replicates; adjuvant 0.2% v/v (none in No Adjuvant rows); % leaf area killed, 21 days after application; Tests 1-4 separate runs
Protocol: as §1, with “pinoxaden” for “nicosulfuron”, “species,” for “species”, “20/16°” for “24/18°”, “Pinoxaden” for “Nicosulfuron”, “EC (emulsifiable concentrate)” for “WG (water dispersible granule)”
as §5

Lolium perenne (LOLPE) = test: as above; conditions: pinoxaden EC, mean over 7.5 and 15 g/ha and 3 replicates; adjuvant 0.2% v/v (none in No Adjuvant rows); % leaf area killed, 21 days after application; Tests 1-4 separate runs
Protocol: as §1, with “pinoxaden” for “nicosulfuron”, “species,” for “species”, “20/16°” for “24/18°”, “Pinoxaden” for “Nicosulfuron”, “EC (emulsifiable concentrate)” for “WG (water dispersible granule)”
as §5

Setaria viridis (SETVI) [11] = test: as above; conditions: pinoxaden EC, mean over 7.5 and 15 g/ha and 3 replicates; adjuvant 0.2% v/v (none in No Adjuvant rows); % leaf area killed, 21 days after application; Tests 1-4 separate runs
Protocol: as §1, with “pinoxaden” for “nicosulfuron”, “species,” for “species”, “20/16°” for “24/18°”, “Pinoxaden” for “Nicosulfuron”, “EC (emulsifiable concentrate)” for “WG (water dispersible granule)”
as §5

Question: Which results are given for `CCCCCCOc1cc(OCCOCCOC)ncn1` [Adjuvant 1]?
Answer: Mean % Herbicidal Activity ABUTH [1]: 64%; Mean % Herbicidal Activity CHEAL [2]: 84%; Mean % Herbicidal Activity DIGSA [3]: 88%; Mean % Herbicidal Activity SETVI (Setaria viridis (SETVI) [4]): 93%; Mean % Herbicidal Activity Average over all Species [5]: 83%; Mean % Herbicidal Activity ABUTH [6]: 74%; Mean % Herbicidal Activity CHEAL [7]: 79%; Mean % Herbicidal Activity IPOHE (Ipomea hederacea (IPOHE)): 91%; Mean % Herbicidal Activity SETVI (Setaria viridis (SETVI) [8]): 65%; Mean % Herbicidal Activity Average over all Species [9]: 77%; Mean % Herbicidal Activity ALOMY [10]: 20%; Mean % Herbicidal Activity AVEFA (Avena fatua (AVEFA)): 78%; Mean % Herbicidal Activity LOLPE (Lolium perenne (LOLPE)): 41%; Mean % Herbicidal Activity SETVI (Setaria viridis (SETVI) [11]): 82%

Question: Which results are given for `CCCCCCOc1cc(OCCOCCOCCOCCOCCOCCOCCOCCOCCOCCOC)ncn1` [Adjuvant 2]?
Answer: Mean % Herbicidal Activity ABUTH [1]: 61%; Mean % Herbicidal Activity CHEAL [2]: 80%; Mean % Herbicidal Activity DIGSA [3]: 89%; Mean % Herbicidal Activity SETVI (Setaria viridis (SETVI) [4]): 97%; Mean % Herbicidal Activity Average over all Species [5]: 82%; Mean % Herbicidal Activity ABUTH [6]: 57%; Mean % Herbicidal Activity CHEAL [7]: 68%; Mean % Herbicidal Activity IPOHE (Ipomea hederacea (IPOHE)): 95%; Mean % Herbicidal Activity SETVI (Setaria viridis (SETVI) [8]): 53%; Mean % Herbicidal Activity Average over all Species [9]: 68%; Mean % Herbicidal Activity ALOMY [10]: 16%; Mean % Herbicidal Activity AVEFA (Avena fatua (AVEFA)): 56%; Mean % Herbicidal Activity LOLPE (Lolium perenne (LOLPE)): 28%; Mean % Herbicidal Activity SETVI (Setaria viridis (SETVI) [11]): 87%

Question: How did the “Mean % Herbicidal Activity ABUTH” value [1] turn out when `CCCCCCOc1cc(OCCOCCOCCOCCOCCOCCOCCOCCOCCOCCOCCOCCOCCOCCOCCOCCOCCOCCOCCOCCOC)ncn1` [Adjuvant 3] was run?
Answer: The value was 49%.

Question: What about the “Mean % Herbicidal Activity CHEAL” value [2] of the same compound?
Answer: The value was 76%.

Question: And the “Mean % Herbicidal Activity DIGSA” value [3]?
Answer: Its value is 88%.

Question: And the “Mean % Herbicidal Activity SETVI” value (Setaria viridis (SETVI) [4])?
Answer: Its value is 93%.

Question: And the “Mean % Herbicidal Activity Average over all Species” value [5]?
Answer: The value was 76%.

Question: What about the “Mean % Herbicidal Activity ABUTH” value [6] of the same compound?
Answer: Its value is 47%.

Question: What about the “Mean % Herbicidal Activity CHEAL” value [7] of the same compound?
Answer: The value was 54%.

Question: What about the “Mean % Herbicidal Activity IPOHE” value (Ipomea hederacea (IPOHE)) of the same compound?
Answer: Its value is 88%.

Question: And the “Mean % Herbicidal Activity SETVI” value (Setaria viridis (SETVI) [8])?
Answer: Its value is 37%.

Question: And the “Mean % Herbicidal Activity Average over all Species” value [9]?
Answer: Its value is 56%.

Question: And the “Mean % Herbicidal Activity ALOMY” value [10]?
Answer: Its value is 15%.

Question: And the “Mean % Herbicidal Activity AVEFA” value (Avena fatua (AVEFA))?
Answer: The value was 52%.

Question: And the “Mean % Herbicidal Activity LOLPE” value (Lolium perenne (LOLPE))?
Answer: Its value is 22%.

Question: What about the “Mean % Herbicidal Activity SETVI” value (Setaria viridis (SETVI) [11]) of the same compound?
Answer: Its value is 88%.

Question: Which results are given for `CCCCCCCCCOc1cc(OCCOCCOCCOCCOCCOCCOCCOC)ncn1` [Adjuvant 4]?
Answer: Mean % Herbicidal Activity ABUTH [1]: 48%; Mean % Herbicidal Activity CHEAL [2]: 78%; Mean % Herbicidal Activity DIGSA [3]: 70%; Mean % Herbicidal Activity SETVI (Setaria viridis (SETVI) [4]): 94%; Mean % Herbicidal Activity Average over all Species [5]: 73%; Mean % Herbicidal Activity ABUTH [6]: 51%; Mean % Herbicidal Activity CHEAL [7]: 45%; Mean % Herbicidal Activity IPOHE (Ipomea hederacea (IPOHE)): 93%; Mean % Herbicidal Activity SETVI (Setaria viridis (SETVI) [8]): 53%; Mean % Herbicidal Activity Average over all Species [9]: 61%; Mean % Herbicidal Activity ALOMY [10]: 18%; Mean % Herbicidal Activity AVEFA (Avena fatua (AVEFA)): 78%; Mean % Herbicidal Activity LOLPE (Lolium perenne (LOLPE)): 30%; Mean % Herbicidal Activity SETVI (Setaria viridis (SETVI) [11]): 82%
